Reference: patent publication US20250154134A1, “COMPOUND AS FAK INHIBITOR AND USE THEREOF” (WIGEN BIOMEDICINE TECHNOLOGY (SHANGHAI) CO., LTD., priority 2022, published 2025)
pIC50: −log10 of the molar value.

Legend:
[1] = target: FAK recombinant protein (Homo sapiens (Human), UniProt Q05397); experiment: Inhibitory activity against FAK enzyme (HTRF, TK substrate); type: biochemical
Experimental: A compound serially diluted with DMSO was mixed with a FAK recombinant protein. After the mixture was left to stand at room temperature for 10 min, a biotin-labeled TK substrate (TK) and ATP were added. […] The inhibition percentage and IC50 of the compound were calculated compared to the DMSO control group.

[2] = system: PC3 cells; experiment: PC3 cell proliferation, 2D activity assay (Cell Titer-Lumi, 72 h); type: cell-based, human
[3] = system: PC3 cells; experiment: PC3 cell proliferation, 3D activity assay (3D culture, 14 days); type: cell-based, human; conditions: read-out: 3D inhibitory activity against PC3 cells IC50
[4] = Homo sapiens, PC-3, read-out: 2D inhibitory activity against PC3 cells IC50

Sequence of FAK recombinant protein (Q05397 whole entry): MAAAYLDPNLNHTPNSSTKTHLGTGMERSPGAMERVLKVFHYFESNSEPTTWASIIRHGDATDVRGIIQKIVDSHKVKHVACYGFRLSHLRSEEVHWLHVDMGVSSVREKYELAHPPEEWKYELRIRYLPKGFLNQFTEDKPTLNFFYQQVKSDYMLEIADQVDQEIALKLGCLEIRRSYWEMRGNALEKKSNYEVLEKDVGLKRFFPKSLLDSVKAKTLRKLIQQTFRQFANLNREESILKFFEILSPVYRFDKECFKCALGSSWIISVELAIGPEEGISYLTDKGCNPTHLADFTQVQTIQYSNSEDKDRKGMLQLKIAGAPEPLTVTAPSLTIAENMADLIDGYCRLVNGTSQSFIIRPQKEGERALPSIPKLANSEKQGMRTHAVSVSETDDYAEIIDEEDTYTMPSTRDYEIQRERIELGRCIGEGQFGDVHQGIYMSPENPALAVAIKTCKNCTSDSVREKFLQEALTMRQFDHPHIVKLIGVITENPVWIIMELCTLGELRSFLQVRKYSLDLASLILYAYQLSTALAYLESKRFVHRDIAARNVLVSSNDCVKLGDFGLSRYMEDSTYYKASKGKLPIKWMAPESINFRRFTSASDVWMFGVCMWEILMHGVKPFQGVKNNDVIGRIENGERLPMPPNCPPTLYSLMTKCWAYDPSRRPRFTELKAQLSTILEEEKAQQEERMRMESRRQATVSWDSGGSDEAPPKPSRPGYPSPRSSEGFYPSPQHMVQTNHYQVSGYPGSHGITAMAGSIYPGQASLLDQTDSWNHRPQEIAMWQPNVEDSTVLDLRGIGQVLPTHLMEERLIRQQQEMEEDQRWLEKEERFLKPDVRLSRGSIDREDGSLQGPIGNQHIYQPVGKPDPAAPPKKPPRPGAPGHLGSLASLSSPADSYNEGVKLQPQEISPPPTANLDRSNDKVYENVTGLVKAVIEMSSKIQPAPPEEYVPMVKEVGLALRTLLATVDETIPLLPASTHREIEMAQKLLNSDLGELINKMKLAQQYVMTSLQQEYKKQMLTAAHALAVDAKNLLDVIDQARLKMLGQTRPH

Row | pIC50 [1] | pIC50 [2, 4] | pIC50 ([3]; Homo sapiens, PC-3, 336 h) | pIC50 ([2]; read-out: 2D inhibitory activity against PC3 cells IC50) | pIC50 [3] | SMILES
1 | > 7.70 | < 5.70 | 7.30 to 8.30 |  |  | COc1cc(C2CCN(C)CC2)c(F)cc1Nc1ncc(Br)c(Oc2cccc3c2C(=O)N(C)C32CC2)n1 [Compound 180]
2 | > 7.70 | < 5.70 | > 8.30 |  |  | COc1cc(N2CCC(N3CCN(C)CC3)CC2)c(F)cc1Nc1ncc(Br)c(Oc2cccc3c2C(=O)N(C)C32CC2)n1 [Compound 181]
3 | > 7.70 | < 5.70 | > 8.30 |  |  | COc1cc(N2CCC(N3CCN(C)CC3)CC2)ccc1Nc1ncc(Br)c(Oc2cccc3c2C(=O)N(C)C32CC2)n1 [Compound 182]
4 | > 7.70 | < 5.70 | 7.30 to 8.30 |  |  | COc1cc(N2CCN(C)CC2)c(F)cc1Nc1ncc(Br)c(Oc2cccc3c2C(=O)N(C)C32CC2)n1 [Compound 183]
5 | > 7.70 | < 5.70 | 7.30 to 8.30 |  |  | COc1cc(N2CCN(C)CC2)ccc1Nc1ncc(Br)c(Oc2cccc3c2C(=O)N(C)C32CC2)n1 [Compound 184]
6 | > 7.70 | < 5.70 | > 8.30 |  |  | COCCN1CCN(c2ccc(Nc3ncc(Br)c(Oc4cccc5c4C(=O)N(C)C54CC4)n3)c(OC)c2)CC1 [Compound 185]
7 | > 7.70 | < 5.70 | > 8.30 |  |  | COCCN1CCN(c2cc(OC)c(Nc3ncc(Br)c(Oc4cccc5c4C(=O)N(C)C54CC4)n3)cc2F)CC1 [Compound 186]
8 | > 7.70 | < 5.70 | > 8.30 |  |  | COc1cc(N2CCN(CC(=O)N(C)C)CC2)ccc1Nc1ncc(Br)c(Oc2cccc3c2C(=O)N(C)C32CC2)n1 [Compound 187]
9 | > 7.70 | < 5.70 | 7.30 to 8.30 |  |  | COc1cc(N2CC3(CN(C)C3)C2)ccc1Nc1ncc(Br)c(Oc2cccc3c2C(=O)N(C)C32CC2)n1 [Compound 188]
10 | > 7.70 | < 5.70 | > 8.30 |  |  | COc1cc(N2CCC3(CCN(C)CC3)CC2)ccc1Nc1ncc(Br)c(Oc2cccc3c2C(=O)N(C)C32CC2)n1 [Compound 189]
11 | > 7.70 | < 5.70 | > 8.30 |  |  | COc1cc(N2CCC3(CC2)CN(C)C3)ccc1Nc1ncc(Br)c(Oc2cccc3c2C(=O)N(C)C32CC2)n1 [Compound 190]
12 | > 7.70 | < 5.70 | 7.30 to 8.30 |  |  | COc1cc(N2CCC(N(C)C)CC2)c(F)cc1Nc1ncc(Br)c(Oc2cccc3c2C(=O)N(C)C32CC2)n1 [Compound 191]
13 | > 7.70 | < 5.70 | > 8.30 |  |  | COc1cc(C(=O)NC2CCN(C)CC2)ccc1Nc1ncc(C#N)c(Oc2cccc3c2C(=O)N(C)C32CC2)n1 [Compound 192, 4-((5-cyano-4-((2′-methyl-3′-oxospiro[cyclopropane-1,1′-isoindolin]-4′-yl)oxy)pyrimidin-2-yl)amino)-3-methoxy-N-(1-methylpiperidin-4-yl)benzamide]
14 | > 7.70 | < 5.70 | > 8.30 |  |  | COc1cc(C(=O)NC2CCN(C)CC2)c(F)cc1Nc1ncc(C#N)c(Oc2cccc3c2C(=O)N(C)C32CC2)n1 [Compound 193]
15 | > 7.70 | < 5.70 | > 8.30 |  |  | COc1cc(C(=O)NC2CC3(CCN(C)CC3)C2)c(F)cc1Nc1ncc(C#N)c(Oc2cccc3c2C(=O)N(C)C32CC2)n1 [Compound 194]
16 | > 7.70 | < 5.70 | > 8.30 |  |  | COc1cc(C(=O)NC2CC3(CCN(C)CC3)C2)ccc1Nc1ncc(C#N)c(Oc2cccc3c2C(=O)N(C)C32CC2)n1 [Compound 195]
17 | > 7.70 | < 5.70 | 7.30 to 8.30 |  |  | COc1cc(C2CCN(C)CC2)ccc1Nc1ncc(C#N)c(Oc2cccc3c2C(=O)N(C)C32CC2)n1 [Compound 198]
18 | > 7.70 | < 5.70 | 7.30 to 8.30 |  |  | COc1cc(C2CCN(C)CC2)c(F)cc1Nc1ncc(C#N)c(Oc2cccc3c2C(=O)N(C)C32CC2)n1 [Compound 199]

Row | pIC50 [1] | pIC50 [2, 4] | pIC50 ([3]; Homo sapiens, PC-3, 336 h) | pIC50 ([2]; read-out: 2D inhibitory activity against PC3 cells IC50) | pIC50 [3] | SMILES
19 | > 7.70 | < 5.70 | > 8.30 |  |  | COc1cc(N2CCC(N3CCN(C)CC3)CC2)ccc1Nc1ncc(C#N)c(Oc2cccc3c2C(=O)N(C)C32CC2)n1 [Compound 200]
20 | > 7.70 | < 5.70 | > 8.30 |  |  | COc1cc(N2CCN(C)CC2)c(F)cc1Nc1ncc(C#N)c(Oc2cccc3c2C(=O)N(C)C32CC2)n1 [Compound 201]
21 | > 7.70 | < 5.70 | > 8.30 |  |  | COc1cc(N2CCC3(CC2)CN(C)C3)ccc1Nc1ncc(C#N)c(Oc2cccc3c2C(=O)N(C)C32CC2)n1 [Compound 202]
22 | > 7.70 |  |  | < 5.70 | > 8.30 | COc1cc(N2CC3(CCN(C)CC3)C2)ccc1Nc1ncc(Cl)c(Oc2cccc3c2C(=O)N(C)C32CCC2)n1 [Compound 203, 94′-((5-chloro-2-((2-methoxy-4-(7-methyl-2,7-diazaspiro[3.5]nonan-2-yl)phenyl)amino)pyrimidin-4-yl)oxy)-2′-methylspiro[cyclobutane-1,1′-isoindolin]-3′-one]
23 | > 7.70 | < 5.70 | > 8.30 |  |  | COc1cc(C(=O)NC2CC3(CCN(C)CC3)C2)c(F)cc1Nc1ncc(Cl)c(Oc2cccc3c2C(=O)N(C)C32CCC2)n1 [Compound 204]
24 | > 7.70 | < 5.70 | > 8.30 |  |  | COc1cc(C(=O)NC2CCN(C)CC2)c(F)cc1Nc1ncc(Cl)c(Oc2cccc3c2C(=O)N(C)C32CCC2)n1 [Compound 205]
25 | > 7.70 | < 5.70 | > 8.30 |  |  | COc1cc(N2CC3(CCN(C)CC3)C2)c(F)cc1Nc1ncc(Cl)c(Oc2cccc3c2C(=O)N(C)C32CCC2)n1 [Compound 206]
26 | > 7.70 | < 5.70 | 7.30 to 8.30 |  |  | COc1cc(N2CC3(CCN(C)CC3)C2)ccc1Nc1ncc(Cl)c(Oc2cccc3c2C(=O)N(C)C32CCCC2)n1 [Compound 207]
27 | > 7.70 | < 5.70 | < 7.30 |  |  | COc1cc(C(=O)NC2CC3(CCN(C)CC3)C2)c(F)cc1Nc1ncc(Cl)c(Oc2cccc3c2C(=O)N(C)C32CCCC2)n1 [Compound 208]
28 | > 7.70 | < 5.70 | < 7.30 |  |  | COc1cc(N2CC3(CCN(C)CC3)C2)ccc1Nc1ncc(Cl)c(Oc2cccc3c2C(=O)N(C)C32CCCCC2)n1 [Compound 210]
29 | > 7.70 | < 5.70 | < 7.30 |  |  | COc1cc(N2CC3(CCN(C)CC3)C2)c(F)cc1Nc1ncc(Cl)c(Oc2cccc3c2C(=O)N(C)C32CCCCC2)n1 [Compound 211]
30 | > 7.70 | < 5.70 | < 7.30 |  |  | COc1cc(C(=O)NC2CCN(C)CC2)c(F)cc1Nc1ncc(Cl)c(Oc2cccc3c2C(=O)N(C)C32CCCCC2)n1 [Compound 212]
31 | > 7.70 | < 5.70 | < 7.30 |  |  | COc1cc(N2CC3(CCN(C)CC3)C2)ccc1Nc1ncc(Cl)c(Oc2cccc3c2C(=O)N(C)C32CCOCC2)n1 [Compound 213]
32 | > 7.70 | < 5.70 | < 7.30 |  |  | COc1cc(N2CC3(CCN(C)CC3)C2)c(F)cc1Nc1ncc(Cl)c(Oc2cccc3c2C(=O)N(C)C32CCOCC2)n1 [Compound 214]
33 | > 7.70 | < 5.70 | < 7.30 |  |  | COc1cc(C(=O)NC2CCN(C)CC2)c(F)cc1Nc1ncc(Cl)c(Oc2cccc3c2C(=O)N(C)C32CCOCC2)n1 [Compound 215]
34 | > 7.70 | < 5.70 | 7.30 to 8.30 |  |  | COc1cc(N2CC3(CCN(C)CC3)C2)ccc1Nc1ncc(Cl)c(Oc2cccc3c2C(=O)N(C)C32COC2)n1 [Compound 216]
35 | > 7.70 | < 5.70 | 7.30 to 8.30 |  |  | COc1cc(N2CC3(CCN(C)CC3)C2)c(F)cc1Nc1ncc(Cl)c(Oc2cccc3c2C(=O)N(C)C32COC2)n1 [Compound 217]
36 | > 7.70 | < 5.70 | < 7.30 |  |  | COc1cc(C(=O)NC2CCN(C)CC2)c(F)cc1Nc1ncc(Cl)c(Oc2cccc3c2C(=O)N(C)C32COC2)n1 [Compound 218]
